In test [1] the test system is KMS.12.BM cell line (human myeloma). The test can be described thus: KMS.12.BM Cell Viability Assay. The class given is cell-based. To be noted: 72 h, KMS.12.BM cells, 3 days, Cell Titer-GLO, read-out: KMS cellular IC50. On the procedure:
Example B1: KMS.12.BM Cell Viability Assay
KMS.12.BM cell line (human myeloma) was purchased from JCRB (Osaka, Japan) and maintained in RPMI with 10% FBS culture medium. To measure the cytotoxic activity of the compounds through ATP quantitation, the KMS.12.BM cells are plated in the RPMI culture medium at 5000 cells/well/per 100 μL into a 96-well polystyrene clear black tissue culture plate (Greiner-bio-one through VWR, NJ), in the presence or absence of a concentration range of test compounds. After 3 days, […] Cell Titer-GLO Luminescent (Promega, Madison, Wis.) cell culture agent is added to each well for 10 min. at room temperature to stabilize the luminescent signal. This determines the number of viable cells in culture based on quantitation of the ATP present, which signals the presence of metabolically active cells. Luminescence is measured with the Top Count 384 (Packard Bioscience through Perkin Elmer, Boston, Mass.). Compound inhibition is determined relative to cells cultured with no drug and the IC50 reported as the compound concentration required for 50% cell death.

The next test concerns C-myc in KMS.12.BM cells. The test can be described thus: KMS.12.BM C-myc ELISA Assay. The class given is cell-based. The conditions noted are these: Homo sapiens, 2 h. As to the method:
KMS.12.BM C-myc ELISA Assay
KMS.12.BM cell line (human myeloma) was purchased from JCRB (Osaka, Japan) and maintained in RPMI with 10% FBS culture medium. To measure the C-myc inhibitory activity of the compounds, the KMS.12.BM cells are plated in the RPMI culture medium at 75000 cells/well/per 200 μL into a 96-well flat bottom polystyrene tissue culture plate (Corning through VWR, NJ), in the presence or absence of a concentration range of test compounds. After 2 h, cells are pelleted and lysed with Cell Extraction Buffer (BioSource, Carlsbad, Calif.) in the presence of protease inhibitors (Life Technologies, Grand Island, N.Y. and Sigma, St Louis, Mo.). Clarified lyses are tested in a C-myc commercial ELISA (Life Technologies, Grand Island, N.Y.). Compound inhibition is determined relative to cells cultured with no drug and the IC50 reported as the compound concentration required for 50% C-myc inhibition.

A value given as a limit tells only on which side of the number the result lay.

The IC50 is the concentration that inhibits the measured activity by half. As for `Cc1noc(C)c1-c1ccc2nc(N3CCC(N(C)S(C)(=O)=O)CC3)n3c2c1OC[C@@H]3c1ccccn1` [Example 22, N-{1-[(4S)-7-(3,5-dimethylisoxazol-4-yl)-4-pyridin-2-yl-4,5-dihydroimidazo[1,5,4-de][1,4]benzoxazin-2-yl]piperidin-4-yl}-N-methylmethanesulfonamide], the half-inhibitory concentration (IC50) (in test [1]; in the test on C-myc in KMS.12.BM cells) was at most 100 nM throughout.

Take `Cc1noc(C)c1-c1ccc2nc(N3CCC(NC(=O)C4CCC4)CC3)n3c2c1OC[C@@H]3c1ccccn1` [Example 13, N-{1-[(4S)-7-(3,5-dimethylisoxazol-4-yl)-4-pyridin-2-yl-4,5-dihydroimidazo[1,5,4-de][1,4]benzoxazin-2-yl]piperidin-4-yl}cyclobutanecarboxamide]: the 50% inhibitory concentration (IC50) (in test [1]; in the test on C-myc in KMS.12.BM cells) was at most 100 nM in each case.

As for `CCC(=O)N(C)C1CCN(c2nc3ccc(-c4c(C)noc4C)c4c3n2[C@@H](c2ccccn2)CO4)CC1` [Example 15, N-{1-[(4S)-7-(3,5-dimethylisoxazol-4-yl)-4-pyridin-2-yl-4,5-dihydroimidazo[1,5,4-de][1,4]benzoxazin-2-yl]piperidin-4-yl}-N-methylpropanamide], the IC50 (in test [1]; with C-myc in KMS.12.BM cells) was at most 100 nM throughout.

In the case of `CC(=O)NC1(C)CCN(c2nc3ccc(-c4c(C)noc4C)c4c3n2[C@@H](c2ccccn2)CO4)CC1` [Example 5, N-{1-[(4S)-7-(3,5-dimethylisoxazol-4-yl)-4-pyridin-2-yl-4,5-dihydroimidazo[1,5,4-de][1,4]benzoxazin-2-yl]-4-methylpiperidin-4-yl}acetamide], the concentration for half-maximal inhibition (IC50) (in test [1]; in the test on C-myc in KMS.12.BM cells) was at most 100 nM in each case.

For the compound `Cc1noc(C)c1-c1ccc2nc(N3CCC(N(C)C(=O)C4CCC4)CC3)n3c2c1OC[C@@H]3c1ccccn1` [Example 20, N-{1-[(4S)-7-(3,5-dimethylisoxazol-4-yl)-4-pyridin-2-yl-4,5-dihydroimidazo[1,5,4-de][1,4]benzoxazin-2-yl]piperidin-4-yl}-N-methylcyclobutanecarboxamide], the IC50 in test [1] was at most 100 nM; with C-myc in KMS.12.BM cells, 100 to 1000 nM.

Consider `Cc1noc(C)c1-c1ccc2nc(N3CCC(NC(=O)C(C)(C)C)CC3)n3c2c1OC[C@@H]3c1ccccn1` [Example 11, N-{1-[(4S)-7-(3,5-dimethylisoxazol-4-yl)-4-pyridin-2-yl-4,5-dihydroimidazo[1,5,4-de][1,4]benzoxazin-2-yl]piperidin-4-yl}-2,2-dimethylpropanamide], for which the IC50 (in test [1]; with C-myc in KMS.12.BM cells) was at most 100 nM in each case.

With `Cc1noc(C)c1-c1ccc2nc(N3CCN(C(=O)C(C)(C)C)CC3)n3c2c1OC[C@@H]3c1ccccn1` [Example 26, (4S)-7-(3,5-dimethylisoxazol-4-yl)-2-[4-(2,2-dimethylpropanoyl)piperazin-1-yl]-4-pyridin-2-yl-4,5-dihydroimidazo[1,5,4-de][1,4]benzoxazine], the IC50 (in test [1]; with C-myc in KMS.12.BM cells) was at most 100 nM in each case.
